From article PMC9366811, “Antiviral activity of natural phenolic compounds in complex at an allosteric site of SARS-CoV-2 papain-like protease” (Communications Biology, 2022)
Like-named read-outs stand apart in the source and are kept apart here.

Columns and labels:
PLpro = PLpro (Severe acute respiratory syndrome coronavirus 2, UniProt P0DTC1); assay: nanoDSF fluorescence titration (quenching of PLpro fluorescence); assay type: binding, SARS-CoV-2
SARS-CoV-2 [1] = assay: Antiviral activity assay in Vero cells, viral RNA by qRT-PCR; assay type: cell-based; details: Severe acute respiratory syndrome coronavirus 2, MOI 0.01, qRT-PCR, 42 h post-infection, read-out: IC50 Antiviral cell assay (reduction of viral RNA replication)
SARS-CoV-2 [2] = assay: microbe, parasite or virus in culture; assay type: cell-based; details: Vero cells, MOI 0.01, 42 h, CellTiter-Glo; for IC50: read-out: IC50 CPE inhibition
[3] = test system: Vero cell lines (ATCC CCL-81)
SARS-CoV-2 PLpro [4] = target: T1, SARS-CoV-2 PLpro (Severe acute respiratory syndrome coronavirus 2, UniProt P0DTC1); assay: biochemical; details: for inhibition at 50 µM: compound at 50 µM, 10 nM PLpro, ISG15-Rhodamine 100 nM, preincubation 6 h at 10 °C, read-out: % Inhibition of PLpro deISGylation activity
SARS-CoV-2 PLpro [5] = target: T1, SARS-CoV-2 PLpro; assay type: biochemical; details: compound at 50 µM, compared with ISG15-Rhodamine substrate
[6] = target: SARS-CoV-2 main protease (Mpro) (Severe acute respiratory syndrome coronavirus 2, UniProt P0DTC1); assay: FRET-based Mpro inhibition assay; assay type: biochemical; details: substrate 2-AbzSAVLQSGTyr(3-NO2)R-OH, incubated with Mpro for 30 minutes
Method: Activity assays were performed for SARS-CoV-2 Mpro[16],[71] utilizing the three natural compounds, aiming to characterize the specificity of the compounds towards PLpro. The assays were performed applying a total reaction volume of 50 µL using non-binding, black bottom, 96-well plates and the relative fluorescence was measured utilizing a Tecan Infinite M plus plate reader (Tecan Group Ltd, Switzerland) using optical settings specific for the substrate 2-Abz[…]yr(3-NO2)R-OH (Biotrend). The corresponding fluorophore has an excitation and emission at 355 nm and 460 nm wavelength respectively. The substrate and Mpro were used at a final concentration of 5 µM and 75 nM respectively. The known Mpro inhibitor (GC-376) was used as positive control throughout the assay. SARS-CoV-2 Mpro and substrates were diluted in assay buffer (20 mM Tris-HCl pH 7.3, 150 mM NaCl, 1 mM EDTA, 1 mM DTT) and reactions were initiated upon addition of Mpro in a final volume of 50 µL and were measured at 25 °C. The three compounds were incubated prior to the experiments with Mpro at 10 °C for 6 h, as accomplished also for the PLpro activity assays. Fluorescence values were measured for 15 min with one read out per minute. […]
311 with Mpro for 6h at 10 °C and fluorescence was measured for 15 min with read - […]
318 were incubated with the Mpro for 30 minutes. The IC50 values were calculated by […]

Compound	Kd (PLpro; nanoDSF fluorescence titration, 50 μM PLpro, 0.5% DMSO, depending on the emission wavelength used (330/350 nm), read-out: Kd)	IC50 (SARS-CoV-2 [1])	IC50 (SARS-CoV-2 [2]; Severe acute respiratory syndrome coronavirus 2, Vero, 42 h)	IC50 (SARS-CoV-2 [2])	cell toxicity at 100 µM [3]	IC50 (SARS-CoV-2 PLpro [4])	inhibition at 50 µM (SARS-CoV-2 PLpro [4])	inhibition of PLpro with Ub-Rhodamine as substrate (SARS-CoV-2 PLpro [5])	IC50 CPE inhibition (SARS-CoV-2 [2])	Kd (PLpro)	IC50 [6]
COC(=O)c1ccc(O)c(O)c1 [HE9, methyl 3,4-dihydroxybenzoate]	1000 µM	0.13 µM	10.4 µM	10 µM	no associated cell toxicity	–	–	–	–	–	–
OCCc1ccc(O)cc1 [YRL, 4-(2-hydroxyethyl)phenol]	–	1 µM	–	–	no associated cell toxicity	6.68 ± 1.2 µM	~70%	not as pronounced	unable to fit a sigmoidal curve	–	–
O=Cc1ccc(O)cc1 [HBA, 4-hydroxybenzaldehyde]	–	–	–	–	–	3.99 ± 1.33 µM	~73%	not as pronounced	unable to fit a sigmoidal curve	~400 µM	–
CC(C)C[C@H](NC(=O)OCc1ccccc1)C(=O)N[C@@H](CC1CCNC1=O)C(O)S(=O)(=O)O (some centres unmarked) [GC-376]	–	–	–	–	–	–	–	–	–	–	1.1 µM
